Test results taken from PubChem BioAssay (NCI).
“And” between values parts separate entries of the source, which are not always exact repeats. Equal entries are not always repeated.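 Each compound was tested at five concentrations against cells in 96-well plates for 48 hours. GI50 marks 50% less growth. Definition used: TGI = concentration required for complete inhibition of growth.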

Tests used:
Test in all cases: NCI tumour cell line growth inhibition, 48 h
786-0 renal = system: 786-0 renal
ACHN renal = system: ACHN renal
MCF7 breast = system: MCF7 breast
OVCAR-3 ovarian = system: OVCAR-3 ovarian
OVCAR-5 ovarian = system: OVCAR-5 ovarian
PC-3 prostate = system: PC-3 prostate
SF-295 CNS = system: SF-295 CNS
SNB-19 CNS = system: SNB-19 CNS
HOP-92 NSCLC = system: HOP-92 NSCLC
OVCAR-4 ovarian = system: OVCAR-4 ovarian

Compound | TGI (786-0 renal) | TGI (ACHN renal) | TGI (MCF7 breast) | TGI (OVCAR-3 ovarian) | TGI (OVCAR-5 ovarian) | TGI (PC-3 prostate) | TGI (SF-295 CNS) [µM] | TGI (SNB-19 CNS) [µM] | TGI (HOP-92 NSCLC) | GI50 (786-0 renal) | GI50 (ACHN renal) | GI50 (HOP-92 NSCLC) | GI50 (OVCAR-3 ovarian) | GI50 (OVCAR-4 ovarian) | TGI (OVCAR-4 ovarian) | GI50 (OVCAR-5 ovarian) | GI50 (SF-295 CNS) [µM] | GI50 (SNB-19 CNS) [µM] | GI50 (MCF7 breast) | GI50 (PC-3 prostate)
CCn1ncc(N=O)c1N | > 100 µM | > 100 µM | > 100 µM | > 100 µM | > 100 µM | > 100 µM | > 100 | > 100 |  |  |  |  |  |  |  |  |  |  |  | 
Fc1ccc(N=C2C=CC(=Nc3ccc(F)cc3)c3ccccc32)cc1 | > 100 µM | > 100 µM |  | > 100 µM | > 100 µM |  | > 100 | > 100 | > 100 µM |  |  |  |  |  |  |  |  |  |  | 
O=C1c2ccc3c4c(ccc(c24)C(=O)N1CCNCc1ccccc1)C(=O)N(CCNCc1ccccc1)C3=O | 3.59 µM | 13.5 µM |  | 4.16 µM | 4.61 µM |  | 5.2 | 9.28 | 33.2 µM | 1.89 µM | 3.19 µM | 7.66 µM | 1.91 µM | 1.41 µM | 2.71 µM | 2.02 µM | 1.78 | 2.67 |  | 
CN1C2(c3ccccc3)C(C(=O)c3ccccc3)=C(C(=O)c3ccccc3)C1(c1ccccc1)c1c(-c3ccccc3)sc(-c3ccccc3)c12 | > 100 µM | > 100 µM |  | > 100 µM | > 100 µM |  | > 100 | > 100 | > 100 µM |  |  |  |  |  | > 100 µM |  |  |  |  | 
COc1cc(C(=O)NN=C2c3ccccc3-c3ccccc32)cc(OC)c1OC | 31.3 µM | 24.2 µM | > 100 µM | 10.6 µM | > 100 µM | 25 µM | 7.13 | 43.5 |  | 6.86 µM | 4.21 µM |  | 2.33 µM | 17.5 µM | > 100 µM | 7.95 µM | 1.99 | 6.56 | 2.28 µM | 2.72 µM
CSC1=Nc2ccccc2N=C(c2ccccc2)C1 | > 100 µM | > 100 µM |  | > 100 µM | > 100 µM |  | > 100 | > 100 | 85.3 µM |  |  |  |  |  | > 100 µM |  |  |  |  | 
CN1CCN(CCC=C2c3ccccc3Sc3ccc(S(=O)(=O)N(C)C)cc32)CC1 | 16.2 µM and 20.8 µM | 27.3 µM and 27.6 µM | 4 µM and 14 µM | 16.3 µM and 22.7 µM | 38.8 µM and 30 µM | 32.5 µM and > 43.1 µM |  |  | 4.54 µM and 20.3 µM | 4.12 µM and 6.73 µM | 5.27 µM and 10.2 µM | 0.516 µM and 2.84 µM | 3.84 µM and 6.44 µM | 9.5 µM and 12.8 µM | > 100 µM and 58.9 µM | 10.9 µM and 14.8 µM |  |  | 1.91 µM and 2.81 µM | 3.7 µM and 7.99 µM
Cc1cc(Cl)cc2c1NC(=O)C2(O)C(C(=O)c1ccccc1)c1ccccc1 (centres undefined) | > 100 µM and 29.3 µM | > 100 µM and 40.6 µM |  | > 100 µM and 54.1 µM | > 100 µM |  | > 100 | > 100 | 78.7 µM and > 100 µM | 38.2 µM and 12.9 µM | 43 µM and 18.8 µM | 17.2 µM and 43.3 µM | 53 µM and 22.4 µM |  | > 100 µM and 40 µM |  |  |  |  | 
COc1cc(CC(=O)O)c([N+](=O)[O-])cc1OC | > 100 µM | > 100 µM |  | > 100 µM | > 100 µM |  | > 100 | > 100 | > 100 µM |  |  |  |  |  | > 100 µM |  |  |  |  | 
CC(=O)O[C@@H]1CC[C@@]2(C)C(=O)C34C[C@@]5(C)C([C@@H](C)CCCC(C)C)CCC5(C)[C@](O)(O3)C(=O)[C@H]4C2C1(C)C (some centres undefined) | 25.6 µM | 27 µM |  | 25.1 µM | 29.3 µM |  | 29.8 | 30.7 | 34.5 µM |  |  |  |  |  | 26.2 µM |  |  |  |  | 
[CH3][Hg]/[N]=C(/N)NC#N | 22.4 µM | 26.4 µM |  | 8.6 µM | 31 µM |  | 54.5 |  | 3.84 µM | 10.2 µM | 13.5 µM | 1.78 µM | 2.74 µM | 3.23 µM | 9.31 µM | 17.1 µM | 18.5 |  |  | 
N#CCCN(c1ccc(C=O)cc1)S(=O)(=O)c1ccccc1 | > 100 µM | > 100 µM |  | > 100 µM | > 100 µM |  | > 100 | > 100 |  |  |  |  |  |  | > 100 µM |  |  |  |  | 
COc1ccc([C@@H]2OC(=O)C3C2C(=O)O[C@H]3c2ccc(OC)cc2)cc1 (some centres undefined) | > 100 µM | > 100 µM |  | > 100 µM |  |  | > 100 | > 100 |  |  |  |  |  |  | > 100 µM |  |  |  |  | 
COc1cc(C2CC(c3cccc(Nc4ccnc5cc(Cl)ccc45)c3)=NN2c2ccccc2)cc(OC)c1OC (centres undefined) | > 100 µM | > 100 µM | > 100 µM | > 100 µM | > 100 µM | > 100 µM | > 100 | > 100 | > 100 µM | 5.88 µM | 3.52 µM | 3.6 µM | 8.64 µM |  |  | > 100 µM | 3.55 | > 100 | 2.74 µM | 1.71 µM
COC(=O)c1c2c(c(C)[n+]([O-])c1C)C(=O)C(NCc1ccc(O)cc1)=CC2=O | 4.87 µM | 3.22 µM | 2 µM | 0.82 µM | 3.36 µM | 6.55 µM | 3.17 |  | 5.12 µM | 2.11 µM | 1.7 µM | 2.52 µM | 0.266 µM | 1.03 µM | 2.23 µM | 1.77 µM | 1.67 |  | 0.416 µM | 2 µM
C[C@]12CCc3nn(-c4ccccc4)nc3C1CC[C@@H]1C2CC[C@]2(C)C(=O)CCC12 (some centres undefined) | > 100 µM | > 100 µM |  | > 100 µM | > 100 µM |  | > 100 | > 100 | > 100 µM |  |  |  |  |  | > 100 µM |  |  |  |  | 
CCOC(=O)C(=O)C(C#N)c1ccc(Cl)cc1 (centres undefined) | > 100 µM | > 100 µM |  | > 100 µM | > 100 µM |  | > 100 | > 100 | > 100 µM |  |  |  |  |  | > 100 µM |  |  |  |  | 
O=C(CC(=O)c1cccc([N+](=O)[O-])c1)C(=O)Nc1ccccc1 | > 100 µM | > 100 µM |  | > 100 µM | > 100 µM |  | > 100 | > 100 | > 100 µM |  |  |  |  |  | > 100 µM |  |  |  |  | 
CC(=O)Nc1ccc(C2=N/C(=C\c3ccc(Cl)cc3)C(=O)O2)cc1 | 51.6 µM | 94 µM |  | 86.7 µM | > 100 µM |  | > 100 | > 100 | > 100 µM |  |  |  |  |  | > 100 µM |  |  |  |  | 
